Data taken from patent US20210284668A1, “GOLD (I)-PHOSPHINE 1,2,3-TRIAZOLE DERIVATIVES WITH ANTIBIOTIC PROPERTIES” (Centre National de la Recherche Scientifique, priority 2018, published 2021).
“And” between values parts separate entries of the source, which are not always exact repeats. Equal entries are not always repeated.

What was measured:
S. aureus ST20131365 = test: MIC by microdilution, S. aureus ST20131365; format: cell-based, Staphylococcus aureus; settings: S. aureus ST20131365 (MecA positive, glycopeptide resistant), in duplicate
Method in brief: (§1)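 MICs determined in duplicate by CLSI broth microdilution (M07-A10) in Mueller-Hinton broth. S. aureus ATCC700699: MecA positive, glycopeptide resistant; S. epidermidis ATCC35984: MecA positive; E. coli ATCC25922: wild-type. Panel spans Gram-positive and Gram-negative strains from wild-type to multi-drug resistant.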

[1] = tested on: Clostridium difficile ATCC700057; test: MIC by microdilution, Clostridium difficile; format: cell-based; settings: strain ATCC70057 [sic] (Tables 1-2) / ATCC700057 (Tables 3-10), in duplicate
E. faecium ATCC19434T = test: MIC by microdilution, E. faecium ATCC19434T; format: cell-based, Enterococcus faecium; parameters: unit not given here; settings: E. faecium ATCC19434T (wild-type), in duplicate
Method in brief: (§2)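 Broth microdilution per CLSI (M07-A10) in Mueller-Hinton broth, run in duplicate; MIC recorded as minimal inhibitory concentration. Panel spans wild-type to multidrug-resistant strains, e.g. S. aureus ATCC700699 (MecA+, glycopeptide resistant), S. epidermidis ATCC35984 (MecA+), E. coli ATCC25922 (wild-type).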

E. faecalis V583 = test: MIC by microdilution, E. faecalis V583; format: cell-based, Enterococcus faecalis; settings: E. faecalis V583 (VanB positive, glycopeptide resistant), in duplicate
Method in brief: as §1

E. faecium BM4147 = test: MIC by microdilution, E. faecium BM4147; format: cell-based, Enterococcus faecium; parameters: unit not given here; settings: E. faecium BM4147 (VanA positive, glycopeptide resistant), in duplicate
Method in brief: as §2

S. aureus ATCC29213 = test: MIC by microdilution, S. aureus ATCC29213; format: cell-based, Staphylococcus aureus; settings: S. aureus ATCC29213 (MecA negative, wild-type), Mueller-Hinton broth, in duplicate
Protocol: The antibacterial profile of each derivative was evaluated by the standard microdilution method for susceptibility testing on 16 different strains, following the guidelines of CLSI. The selected panel included: • S. aureus ATCC25923 (MecA negative, wild-type) • S. aureus ATCC29213 (MecA negative, wild-type) • S. aureus ATCC700699 (MecA positive, glycopeptide resistant) • S. aureus ST20131365 (MecA positive, glycopeptide resistant) • S. epidermidis ATCC14990 (MecA negative, wild-type) • S. epidermidis ATCC35984 (MecA positive) • S. epidermidis ST20140436 (MecA positive, glycopeptide resistant) • S. epidermidis ST20150446 (MecA positive, glycopeptide resistant) • E. faecalis JH2-2 (wild-type) • E. faecalis UCN41 (VanA positive, glycopeptide resistant) • E. faecalis V583 (VanB positive, glycopeptide resistant) • E. faecium ATCC19434T (wild-type) • E. faecium BM4147 (VanA positive, glycopeptide resistant) • E. faecium AUS0004 (VanB positive, glycopeptide resistant) • E. coli ATCC25922 (wild-type) • Clostridium difficile ATCC9689 (wild-type)
Both series issued from the SAR study were evaluated for their antibacterial activity on a panel of characterized strains obtained from the French National Reference Centers for Staphylococci (Lyon, Pr. Fréderique Laurent) and for Enterococci (Caen, Pr. Vincent Cattoir), respectively. As shown in the following tables, both series contain very active compounds on multi-resistant Gram-positive bacteria (Minimal Inhibitory Concentrations lower than comparator antibiotic ampicillin). Furthermore, a very important antibacterial effect has been shown too on a strain of Clostridium difficile, a Gram-positive, spore-forming, bacillus responsible for post-antibiotic diarrhoae.
The antibacterial activity of test compounds was evaluated on a selected panel of Gram-positive (4 Staphylococcus aureus, 4 Staphylococcus epidermidis, 3 Enterococcus faecalis, 3 Enterococcus faecium, 1 Clostridium difficile) and Gram-negative strains (1 Escherichia coli, 1 Klebsiella pneumoniae, 1 Pseudomonas aeruginosa, 1 Acinetacter baumannii) with known features of antibiotic resistance (from wild-type susceptibility to multi-drug resistance). The Minimal Inhibitory Concentration (MIC) of test compounds was determined in duplicate by the microdilution method in 96-well microplates with a final volume of 100 μL per well and Mueller-Hinton broth as the growth medium, as recommended by the CLSI (Clinical and Laboratory Standards Institute, document Mo7-A10, USA).

[2] = tested on: S. epidermidis ST20150446; test: MIC by microdilution, S. epidermidis ST20150446; format: cell-based, Staphylococcus epidermidis; settings: S. epidermidis ST20150446 (MecA positive, glycopeptide resistant), in duplicate
Method in brief: as §2

S. epidermidis ATCC35984 = test: MIC by microdilution, S. epidermidis ATCC35984; format: cell-based, Staphylococcus epidermidis; settings: S. epidermidis ATCC35984 (MecA positive), in duplicate
Method in brief: as §1

[3] = tested on: S. epidermidis ST20140436; test: MIC by microdilution, S. epidermidis ST20140436; format: cell-based, Staphylococcus epidermidis; settings: S. epidermidis ST20140436 (MecA positive, glycopeptide resistant), in duplicate
Method in brief: as §2

E. faecium AUS0004 = test: MIC by microdilution, E. faecium AUS0004; format: cell-based, Enterococcus faecium; settings: E. faecium AUS0004 (VanB positive, glycopeptide resistant), in duplicate
Method in brief: as §2

E. coli ATCC25922 = test: MIC by microdilution, E. coli ATCC25922; format: cell-based, Escherichia coli; settings: E. coli ATCC25922 (wild-type), in duplicate
Method in brief: as §1

E. faecalis UCN41 = test: MIC by microdilution, E. faecalis UCN41; format: cell-based, Enterococcus faecalis; parameters: unit not given here; settings: E. faecalis UCN41 (VanA positive, glycopeptide resistant), in duplicate
Method in brief: as §2

S. aureus ATCC25923 = test: MIC by microdilution, S. aureus ATCC25923; format: cell-based, Staphylococcus aureus; settings: S. aureus ATCC25923 (MecA negative, wild-type), Mueller-Hinton broth, in duplicate
Method in brief: as §2

[4] = tested on: panel of Gram-positive and Gram-negative strains; test: Antibacterial profile on the selected panel of strains; format: cell-based; settings: summary of Tables 1-12
Method in brief: as §1

S. epidermidis ATCC14990 = test: MIC by microdilution, S. epidermidis ATCC14990; format: cell-based, Staphylococcus epidermidis; settings: S. epidermidis ATCC14990 (MecA negative, wild-type), in duplicate
Method in brief: as §1

S. aureus ATCC700699 = test: MIC by microdilution, S. aureus ATCC700699; format: cell-based, Staphylococcus aureus; parameters: unit not given here; settings: S. aureus ATCC700699 (MecA positive, glycopeptide resistant), in duplicate
Method in brief: as §1

E. faecalis JH2-2 = test: MIC by microdilution, E. faecalis JH2-2; format: cell-based, Enterococcus faecalis; parameters: unit not given here; settings: E. faecalis JH2-2 (wild-type), in duplicate
Method in brief: as §2

Structure (SMILES)	Minimal Inhibitory Concentration (MIC) (S. aureus ST20131365)	Minimal Inhibitory Concentration (MIC) [1]	Minimal Inhibitory Concentration (MIC) (E. faecium ATCC19434T)	Minimal Inhibitory Concentration (MIC) (E. faecalis V583)	Minimal Inhibitory Concentration (MIC) (E. faecium BM4147)	Minimal Inhibitory Concentration (MIC) (S. aureus ATCC29213)	Minimal Inhibitory Concentration (MIC) [2]	Minimal Inhibitory Concentration (MIC) (S. epidermidis ATCC35984)	Minimal Inhibitory Concentration (MIC) [3]	Minimal Inhibitory Concentration (MIC) (E. faecium AUS0004)	Minimal Inhibitory Concentration (MIC) (E. coli ATCC25922)	Minimal Inhibitory Concentration (MIC) (E. faecalis UCN41)	Minimal Inhibitory Concentration (MIC) (S. aureus ATCC25923)	antimicrobial / antibacterial activity (in words) [4]	Minimal Inhibitory Concentration (MIC) (S. epidermidis ATCC14990)	Minimal Inhibitory Concentration (MIC) (S. aureus ATCC700699)	Minimal Inhibitory Concentration (MIC) (E. faecalis JH2-2)
CC1(C)S[C@@H]2[C@H](NC(=O)[C@H](N)c3ccccc3)C(=O)N2[C@H]1C(=O)O [Ampi, ampicillin, reference compound]	4	0.5 and 0.5-1 and 0.25	0.5	0.5	4 and 8	0.5	8 and 4	>8	4 and 8	>8	2	–	–	–	–	–	–
CC[P+](CC)(CC)[Au-][c]1nn[nH]c1COC(=O)NC(C(=O)O)c1ccccc1 (centres unmarked) [TMB1]	0.125	≤0.06	0.5	0.5 and 1	1	0.125	≤0.06	≤0.06	≤0.06	0.5	>8	0.5	0.125	have antimicrobial activity	≤0.06	0.125 and 0.25	0.25 and 0.5
CC[P+](CC)(CC)[Au-][c]1nn[nH]c1CCC(=O)NC(C(=O)NC1C(=O)N2C1SC(C)(C)C2C(=O)O)c1ccccc1 (centres unmarked) [TMB4]	0.125	≤0.06-0.125	0.5	0.5	1	0.125	0.125	≤0.06	≤0.06	0.5	>8	0.5	0.125	have antimicrobial activity	≤0.06	0.125	–
CC1(C)S[C@@H]2[C@H](NC(=O)[C@H](NC(=O)OCc3cnn[nH]3)c3ccccc3)C(=O)N2[C@H]1C(=O)O [TMB5]	>8	4	8	4	>8	2	>8	>8	8/>8	>8	>8	8	2	do not show an antibacterial activity	1	>8	2 and 4
CC1(C)S[C@@H]2[C@H](NC(=O)[C@H](NC(=O)CCc3cnnn3Cc3ccccc3)c3ccccc3)C(=O)N2[C@H]1C(=O)O [TMB6]	>8	2-4	8	4	>8	0.5 and 1	4 and 8	>8	4	>8	>8	8	0.5	do not show an antibacterial activity	0.5	>8	2 and 4
CC[P+](CC)(CC)[Au-][c]1nn[nH]c1CCC(=O)O [TMB19]	0.125	≤0.06	0.125 and 0.25	0.125 and 0.25	0.25	0.125	≤0.06	≤0.06	≤0.06	0.125	>8	0.125 and 0.25	–	have antimicrobial activity	≤0.06	0.125 and 0.25	0.125 and 0.25
CC[P+](CC)(CC)[Au-][c]1nn[nH]c1COC(=O)N[C@@H](CCCNC(=N)N[N+](=O)[O-])C(=O)O [TMB35]	0.25	0.125	0.5	1	1	0.25	0.125 and 0.25	–	0.125	1	>8	1	0.125	have antimicrobial activity	≤0.06	0.25	1
